Laboratory results from the supplement of paper PMC10307832.

Legend:
Experiment in all cases: relative viability (nuclei count vs DMSO), 5 days (fraction); higher = more cells survive
[1] = system: NCI-H2085
Summary of the method: (§1)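 One day after seeding in 1536-well plates, lung cancer cell lines were dosed by pin tool. Dosing was either single-drug or a fixed anchor-drug dose plus five library-drug doses (not always all listed) in √10 steps. After 5 days, nuclei were stained in one fix-and-stain step and counted on 4× images, and relative viability is the nuclei count of treated wells over that of vehicle wells, given as the median of duplicate plates.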

[2] = system: NCI-H1792
Summary of the method: as §1

[3] = system: NCI-H1666
Summary of the method: as §1

[4] = system: NCI-H1944
Summary of the method: as §1

[5] = system: LC-2-ad
Summary of the method: as §1

[6] = system: NCI-H460
Summary of the method: as §1

[7] = system: NCI-H1793
Summary of the method: as §1

[8] = system: EPLC-272H
Summary of the method: as §1

[9] = system: LU99A
Summary of the method: as §1

[10] = system: UMC-11
Summary of the method: as §1

[11] = system: NCI-H2170
Summary of the method: as §1

[12] = system: NCI-H2009
Summary of the method: as §1

[13] = system: HCC-78
Summary of the method: as §1

[14] = system: SK-LU-1
Summary of the method: as §1

[15] = system: COR-L 105
Summary of the method: as §1

[16] = system: A-427
Summary of the method: as §1

[17] = system: LXF-289
Summary of the method: as §1

[18] = system: HOP-62
Summary of the method: as §1

[19] = system: NCI-H1915
Summary of the method: as §1

[20] = system: HCC-366
Summary of the method: as §1

[21] = system: NCI-H358
Summary of the method: as §1

For `Cc1sc2c(c1C)C(c1ccc(Cl)cc1)=N[C@@H](CC(=O)OC(C)(C)C)c1nnc(C)n1-2` [JQ1] + CS(=O)(=O)N1CCN(Cc2cc3nc(-c4cccc5[nH]ncc45)nc(N4CCOCC4)c3s2)CC1 [Pictilisib] (partner 1 µM), which relative viability ([1]; first compound 0.04 µM) is on record?
The relative viability was 0.462.

And the relative viability ([1]; first compound 0.1265 µM)?
Its relative viability is 0.497.

And the relative viability ([1]; first compound 0.4 µM)?
Its relative viability is 0.441.

What about the relative viability ([1]; first compound 1.265 µM) of the same compound?
The relative viability was 0.368.

And the relative viability ([1]; first compound 4 µM)?
The relative viability was 0.385.

What about the relative viability ([2]; first compound 0.04 µM) of the same compound?
Its relative viability is 0.273.

What about the relative viability ([2]; first compound 0.4 µM) of the same compound?
The relative viability was 0.31.

What about the relative viability ([2]; first compound 1.265 µM) of the same compound?
Its relative viability is 0.188.

What about the relative viability ([2]; first compound 4 µM) of the same compound?
The relative viability was 0.174.

And the relative viability ([3]; first compound 0.04 µM)?
The relative viability was 0.314.

And the relative viability ([3]; first compound 0.1265 µM)?
Its relative viability is 0.526.

And the relative viability ([3]; first compound 0.4 µM)?
The relative viability was 0.414.

What about the relative viability ([3]; first compound 1.265 µM) of the same compound?
Its relative viability is 0.274.

And the relative viability ([3]; first compound 4 µM)?
The relative viability was 0.288.

What about the relative viability ([4]; first compound 0.04 µM) of the same compound?
The relative viability was 0.357.

What about the relative viability ([4]; first compound 0.1265 µM) of the same compound?
The relative viability was 0.332.

What about the relative viability ([4]; first compound 0.4 µM) of the same compound?
Its relative viability is 0.311.

And the relative viability ([4]; first compound 1.265 µM)?
Its relative viability is 0.288.

And the relative viability ([4]; first compound 4 µM)?
Its relative viability is 0.307.

And the relative viability ([5]; first compound 0.04 µM)?
The relative viability was 0.386.

What about the relative viability ([5]; first compound 0.1265 µM) of the same compound?
The relative viability was 0.605.

And the relative viability ([5]; first compound 0.4 µM)?
The relative viability was 0.263.

What about the relative viability ([5]; first compound 1.265 µM) of the same compound?
Its relative viability is 0.121.

What about the relative viability ([5]; first compound 4 µM) of the same compound?
The relative viability was 0.117.

And the relative viability ([6]; first compound 0.04 µM)?
Its relative viability is 0.398.

What about the relative viability ([6]; first compound 0.4 µM) of the same compound?
The relative viability was 0.276.

What about the relative viability ([6]; first compound 1.265 µM) of the same compound?
Its relative viability is 0.204.

And the relative viability ([6]; first compound 4 µM)?
The relative viability was 0.135.

What about the relative viability ([7]; first compound 0.04 µM) of the same compound?
The relative viability was 0.434.

And the relative viability ([7]; first compound 0.1265 µM)?
The relative viability was 0.391.

What about the relative viability ([7]; first compound 0.4 µM) of the same compound?
Its relative viability is 0.564.

What about the relative viability ([7]; first compound 1.265 µM) of the same compound?
Its relative viability is 0.339.

And the relative viability ([7]; first compound 4 µM)?
The relative viability was 0.453.

And the relative viability ([8]; first compound 0.04 µM)?
Its relative viability is 0.298.

And the relative viability ([8]; first compound 0.1265 µM)?
The relative viability was 0.326.

What about the relative viability ([8]; first compound 0.4 µM) of the same compound?
Its relative viability is 0.301.

What about the relative viability ([8]; first compound 1.265 µM) of the same compound?
Its relative viability is 0.223.

And the relative viability ([8]; first compound 4 µM)?
The relative viability was 0.184.

And the relative viability ([9]; first compound 0.04 µM)?
Its relative viability is 0.322.

And the relative viability ([9]; first compound 0.1265 µM)?
The relative viability was 0.32.

What about the relative viability ([9]; first compound 0.4 µM) of the same compound?
The relative viability was 0.398.

What about the relative viability ([9]; first compound 1.265 µM) of the same compound?
The relative viability was 0.201.

And the relative viability ([9]; first compound 4 µM)?
Its relative viability is 0.203.

What about the relative viability ([10]; first compound 0.04 µM) of the same compound?
The relative viability was 0.724.

And the relative viability ([10]; first compound 0.1265 µM)?
The relative viability was 0.664.

What about the relative viability ([10]; first compound 0.4 µM) of the same compound?
Its relative viability is 0.338.

What about the relative viability ([10]; first compound 1.265 µM) of the same compound?
Its relative viability is 0.209.

And the relative viability ([10]; first compound 4 µM)?
The relative viability was 0.192.

And the relative viability ([11]; first compound 0.04 µM)?
Its relative viability is 0.293.

What about the relative viability ([11]; first compound 0.1265 µM) of the same compound?
Its relative viability is 0.292.

What about the relative viability ([11]; first compound 0.4 µM) of the same compound?
The relative viability was 0.261.

What about the relative viability ([11]; first compound 1.265 µM) of the same compound?
The relative viability was 0.188.

And the relative viability ([11]; first compound 4 µM)?
The relative viability was 0.152.

And the relative viability ([12]; first compound 0.04 µM)?
The relative viability was 0.767.

What about the relative viability ([12]; first compound 0.1265 µM) of the same compound?
Its relative viability is 0.534.

And the relative viability ([12]; first compound 0.4 µM)?
The relative viability was 0.33.

And the relative viability ([12]; first compound 1.265 µM)?
The relative viability was 0.205.

What about the relative viability ([12]; first compound 4 µM) of the same compound?
Its relative viability is 0.245.

What about the relative viability ([13]; first compound 0.04 µM) of the same compound?
The relative viability was 0.212.

And the relative viability ([13]; first compound 0.1265 µM)?
The relative viability was 0.313.

What about the relative viability ([13]; first compound 0.4 µM) of the same compound?
Its relative viability is 0.185.

What about the relative viability ([13]; first compound 1.265 µM) of the same compound?
Its relative viability is 0.214.

And the relative viability ([13]; first compound 4 µM)?
The relative viability was 0.192.

What about the relative viability ([14]; first compound 0.04 µM) of the same compound?
The relative viability was 0.581.

What about the relative viability ([14]; first compound 0.1265 µM) of the same compound?
Its relative viability is 0.438.

And the relative viability ([14]; first compound 0.4 µM)?
The relative viability was 0.456.

What about the relative viability ([14]; first compound 1.265 µM) of the same compound?
The relative viability was 0.256.

And the relative viability ([14]; first compound 4 µM)?
Its relative viability is 0.171.

What about the relative viability ([15]; first compound 0.04 µM) of the same compound?
The relative viability was 0.374.

And the relative viability ([15]; first compound 0.1265 µM)?
The relative viability was 0.264.

What about the relative viability ([15]; first compound 0.4 µM) of the same compound?
Its relative viability is 0.312.

What about the relative viability ([15]; first compound 1.265 µM) of the same compound?
Its relative viability is 0.304.

And the relative viability ([15]; first compound 4 µM)?
Its relative viability is 0.327.

What about the relative viability ([16]; first compound 0.04 µM) of the same compound?
The relative viability was 0.81.

And the relative viability ([16]; first compound 0.1265 µM)?
The relative viability was 0.748.

What about the relative viability ([16]; first compound 0.4 µM) of the same compound?
The relative viability was 0.674.

And the relative viability ([16]; first compound 1.265 µM)?
The relative viability was 0.511.

And the relative viability ([16]; first compound 4 µM)?
The relative viability was 0.465.

What about the relative viability ([17]; first compound 0.04 µM) of the same compound?
Its relative viability is 0.792.

What about the relative viability ([17]; first compound 0.1265 µM) of the same compound?
Its relative viability is 0.783.

And the relative viability ([17]; first compound 0.4 µM)?
The relative viability was 0.629.

And the relative viability ([17]; first compound 1.265 µM)?
The relative viability was 0.462.

And the relative viability ([17]; first compound 4 µM)?
The relative viability was 0.409.

And the relative viability ([18]; first compound 0.04 µM)?
Its relative viability is 0.815.

What about the relative viability ([18]; first compound 0.1265 µM) of the same compound?
Its relative viability is 0.56.

What about the relative viability ([18]; first compound 0.4 µM) of the same compound?
Its relative viability is 0.249.

And the relative viability ([18]; first compound 1.265 µM)?
Its relative viability is 0.0959.

And the relative viability ([18]; first compound 4 µM)?
Its relative viability is 0.101.

And the relative viability ([19]; first compound 0.04 µM)?
Its relative viability is 0.89.

What about the relative viability ([19]; first compound 0.1265 µM) of the same compound?
Its relative viability is 0.872.

And the relative viability ([19]; first compound 0.4 µM)?
The relative viability was 0.758.

And the relative viability ([19]; first compound 1.265 µM)?
The relative viability was 0.494.

What about the relative viability ([19]; first compound 4 µM) of the same compound?
The relative viability was 0.226.

What about the relative viability ([20]; first compound 0.04 µM) of the same compound?
The relative viability was 0.136.

What about the relative viability ([20]; first compound 0.1265 µM) of the same compound?
The relative viability was 0.156.

What about the relative viability ([20]; first compound 0.4 µM) of the same compound?
Its relative viability is 0.131.

What about the relative viability ([20]; first compound 1.265 µM) of the same compound?
The relative viability was 0.153.

And the relative viability ([20]; first compound 4 µM)?
Its relative viability is 0.196.

What about the relative viability ([21]; first compound 0.04 µM) of the same compound?
Its relative viability is 0.329.

And the relative viability ([21]; first compound 0.1265 µM)?
The relative viability was 0.431.

What about the relative viability ([21]; first compound 0.4 µM) of the same compound?
The relative viability was 0.376.

And the relative viability ([21]; first compound 1.265 µM)?
The relative viability was 0.386.

What about the relative viability ([21]; first compound 4 µM) of the same compound?
The relative viability was 0.336.
